Assay results taken from ChEMBL document CHEMBL1201862, “PubChem BioAssay data set” (2004).
One block for each compound: values may come before it. Activity calls are given as the source filed them.

Assays:
[1] = target: T1, Type-1 angiotensin II receptor (Homo sapiens, UniProt P30556); experiment: antagonism of angiotensin II type 1 receptor – cell-based, uHTS hits, selectivity assay for APJ receptor antagonist project, dose response (AID 463214); type: functional;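 also: antagonist potency against angiotensin II stimulated AT1 response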
T1 sequence (P30556 whole entry): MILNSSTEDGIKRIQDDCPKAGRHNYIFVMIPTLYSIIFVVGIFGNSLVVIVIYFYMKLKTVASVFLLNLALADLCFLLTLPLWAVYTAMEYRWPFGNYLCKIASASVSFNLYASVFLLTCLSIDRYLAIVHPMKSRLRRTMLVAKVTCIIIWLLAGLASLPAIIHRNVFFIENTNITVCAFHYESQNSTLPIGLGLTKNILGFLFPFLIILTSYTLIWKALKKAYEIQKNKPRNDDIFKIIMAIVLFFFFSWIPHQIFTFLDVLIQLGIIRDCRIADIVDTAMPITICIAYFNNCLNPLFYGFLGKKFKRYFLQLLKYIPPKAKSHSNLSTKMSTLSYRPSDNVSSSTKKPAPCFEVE

Beta-galactosidase = Beta-galactosidase (Escherichia coli, UniProt Q8VNN2); experiment: PubChem AID 485352; type: functional
HeLa = experiment: viability loss in HeLa cells – cell-based, ATP luminescence, cherry-pick samples, cytotoxicity control, dose response (AID 687004); type: functional
[2] = target: Tyrosyl-DNA phosphodiesterase 2 (Homo sapiens, UniProt O95551); experiment: potency against TDP2 phosphodiesterase activity – biochemical, epi absorbance, IC50, dose response (AID 743297)
[3] = HCT116 cell viability decrease, GSK3B pretreatment – CellTiter-Glo, IC50, dose response (AID 1117339); type: functional; details: HCT-116
[4] = rise of 2N DNA cells, HeLa – IC50, dose response (AID 1117349); type: functional, cell-based
[5] = cytotoxicity toward Colo320 cells – cell-based, CellTiter-Glo luminescence, IC50, dose response (AID 1117334); type: functional; details: COLO 320
[6] = rise of 4N DNA cells, HeLa – IC50, dose response (AID 1117351); type: functional, cell-based
[7] = Reduced DLD-1 viability, concentration-response, CellTiter-Glo luminescence (AID 1117352); type: functional
[8] = cytotoxicity toward HCT116 cells – cell-based, CellTiter-Glo luminescence, IC50, dose response (AID 1117332); type: functional; details: HCT-116
[9] = RKO cell viability reduction, dose response, CellTiter-Glo luminescence (AID 1117322); type: functional
[10] = cytotoxicity toward HT-29 cells – cell-based, CellTiter-Glo luminescence, IC50, dose response (AID 1117330); type: functional
[11] = CellTiter-Glo luminescence survival assay, SW480 colon tumor line, concentration-response curve, half-maximal inhibitory concentration (AID 1117338); type: functional
[12] = SNU-C1 cell viability reduction, dose response, CellTiter-Glo luminescence (AID 1117323); type: functional, cell-based
cells [13] = experiment: cells
[14] = target: T2, Oxysterols receptor LXR-beta (Homo sapiens, UniProt P55055); type: functional, cell-based;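 also: Cell-based luminescence dose-response assay of agonist activity at LXR, run as a confirmatory counterscreen to a daf-12 agonist screen; HEK293 cells with Gal4-LXR fusion and GAL4-driven luciferase reporter; agonist potency from rising luciferase signal of a Gal4-LXR reporter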
T2 sequence (P55055 whole entry): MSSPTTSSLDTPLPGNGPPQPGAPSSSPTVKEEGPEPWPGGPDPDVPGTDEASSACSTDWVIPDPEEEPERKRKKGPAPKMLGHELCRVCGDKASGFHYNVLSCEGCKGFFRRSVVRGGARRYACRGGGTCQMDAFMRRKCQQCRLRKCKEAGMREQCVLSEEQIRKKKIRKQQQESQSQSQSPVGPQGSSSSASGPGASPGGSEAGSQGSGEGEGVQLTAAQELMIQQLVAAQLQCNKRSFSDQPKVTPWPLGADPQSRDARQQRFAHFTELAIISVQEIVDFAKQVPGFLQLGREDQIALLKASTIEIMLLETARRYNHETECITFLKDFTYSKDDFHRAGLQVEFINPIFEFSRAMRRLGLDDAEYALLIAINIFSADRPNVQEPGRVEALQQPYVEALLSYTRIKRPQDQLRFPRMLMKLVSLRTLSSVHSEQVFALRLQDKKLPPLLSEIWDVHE

[15] = target: T3, Trace amine-associated receptor 1 (Homo sapiens, UniProt Q96RJ0); experiment: Counterscreen for agonists of the human trace amine associated receptor 1 (hTAAR1): Fluorescence-based cell-based high throughput dose response assay to identify hTAAR1 agonist that also desensitize TAAR1 receptor response.; type: functional
T3 sequence (Q96RJ0 whole entry): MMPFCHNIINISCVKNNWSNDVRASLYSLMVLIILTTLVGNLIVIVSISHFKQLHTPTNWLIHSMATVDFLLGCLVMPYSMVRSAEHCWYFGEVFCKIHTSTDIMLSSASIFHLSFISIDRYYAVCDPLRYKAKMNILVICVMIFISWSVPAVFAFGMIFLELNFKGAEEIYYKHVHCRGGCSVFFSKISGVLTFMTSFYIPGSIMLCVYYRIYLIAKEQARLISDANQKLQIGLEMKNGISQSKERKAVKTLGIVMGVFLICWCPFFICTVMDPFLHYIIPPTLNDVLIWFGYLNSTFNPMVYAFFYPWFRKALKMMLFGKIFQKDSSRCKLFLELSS

[16] = target: T3, Trace amine-associated receptor 1; experiment: Fluorescence-based cell-based high throughput dose response assay to identify agonists of the human trace amine associated receptor 1 (TAAR1).; type: functional
cells [17] = type: functional, cell-based
cells [18] = type: functional, cell-based; remark: listed apart in the source
[19] = HIV-1 Vif–A3G interaction blockers – biochemical, TR-FRET, GST-Vif 1-94, biotin-A3G peptide, dose response retest, primary screen (AID 1117319); type: functional;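 also: TR-FRET signal of purified GST-Vif binding a biotinylated A3G peptide; inhibitors lower the FRET signal by blocking Vif and A3G binding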
[20] = target: T4, RNA-binding protein pos-1 (Caenorhabditis elegans, UniProt G5EF15); experiment: disruptors of C. elegans POS-1 RNA interaction – biochemical, fluorescence polarization, dose response (AID 1964);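 also: purified POS-1 fused to maltose binding protein made in E. coli; potency of compounds blocking POS-1 binding to fluorescent RNA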
T4 sequence (G5EF15 whole entry): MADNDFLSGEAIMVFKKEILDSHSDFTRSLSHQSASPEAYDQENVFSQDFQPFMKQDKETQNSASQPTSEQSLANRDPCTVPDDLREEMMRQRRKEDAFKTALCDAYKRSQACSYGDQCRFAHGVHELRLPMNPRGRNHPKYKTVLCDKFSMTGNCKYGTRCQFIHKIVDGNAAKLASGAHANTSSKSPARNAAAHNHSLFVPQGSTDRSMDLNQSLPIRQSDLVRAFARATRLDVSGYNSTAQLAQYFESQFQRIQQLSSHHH

[21] = target: T5, Zinc finger protein mex-5 (Caenorhabditis elegans, UniProt Q9XUB2); experiment: potency of MEX-5 RNA-binding blockers – biochemical, C. elegans, fluorescence polarization, dose response (AID 1960)
T5 sequence (Q9XUB2 whole entry): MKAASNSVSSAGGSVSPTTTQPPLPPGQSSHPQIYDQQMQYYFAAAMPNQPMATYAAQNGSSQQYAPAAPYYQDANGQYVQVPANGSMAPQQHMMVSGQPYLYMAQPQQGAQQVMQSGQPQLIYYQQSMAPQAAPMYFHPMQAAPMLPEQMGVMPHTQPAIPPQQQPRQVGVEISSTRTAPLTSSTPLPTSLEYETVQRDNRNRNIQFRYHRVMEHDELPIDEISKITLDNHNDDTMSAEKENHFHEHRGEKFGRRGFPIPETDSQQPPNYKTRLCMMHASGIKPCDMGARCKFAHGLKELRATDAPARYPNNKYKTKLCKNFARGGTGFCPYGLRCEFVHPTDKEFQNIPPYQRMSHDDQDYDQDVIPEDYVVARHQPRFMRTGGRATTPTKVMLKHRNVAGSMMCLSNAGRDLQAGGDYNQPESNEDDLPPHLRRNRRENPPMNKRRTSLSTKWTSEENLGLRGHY

Albumin = Albumin (Bos taurus, UniProt P02769); experiment: Counterscreen for inhibitors of T-cell receptor (TCR)-CD3 interaction: Fluorescence-based biochemical high throughput dose response assay to identify inhibitors of T-cell receptor (TCR)-CD3 interaction using a TAMRA-labeled BSA probe.; type: functional
Albumin, sequence (P02769 whole entry): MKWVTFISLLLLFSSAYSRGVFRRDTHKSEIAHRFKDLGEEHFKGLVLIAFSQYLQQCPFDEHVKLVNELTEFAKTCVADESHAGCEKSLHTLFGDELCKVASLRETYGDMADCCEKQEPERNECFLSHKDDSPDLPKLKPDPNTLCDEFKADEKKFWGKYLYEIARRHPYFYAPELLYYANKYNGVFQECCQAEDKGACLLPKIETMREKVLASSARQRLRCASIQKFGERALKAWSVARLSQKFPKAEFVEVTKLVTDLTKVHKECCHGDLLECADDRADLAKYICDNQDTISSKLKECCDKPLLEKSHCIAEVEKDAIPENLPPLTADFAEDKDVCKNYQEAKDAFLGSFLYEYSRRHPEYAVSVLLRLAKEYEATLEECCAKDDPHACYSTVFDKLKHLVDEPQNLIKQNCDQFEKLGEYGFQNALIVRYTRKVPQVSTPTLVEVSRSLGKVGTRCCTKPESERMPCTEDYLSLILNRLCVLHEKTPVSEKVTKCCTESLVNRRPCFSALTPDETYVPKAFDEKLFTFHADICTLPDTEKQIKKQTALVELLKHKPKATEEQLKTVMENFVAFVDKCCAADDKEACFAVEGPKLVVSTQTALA

Tyrosyl-DNA phosphodiesterase 2, sequence (O95551 whole entry): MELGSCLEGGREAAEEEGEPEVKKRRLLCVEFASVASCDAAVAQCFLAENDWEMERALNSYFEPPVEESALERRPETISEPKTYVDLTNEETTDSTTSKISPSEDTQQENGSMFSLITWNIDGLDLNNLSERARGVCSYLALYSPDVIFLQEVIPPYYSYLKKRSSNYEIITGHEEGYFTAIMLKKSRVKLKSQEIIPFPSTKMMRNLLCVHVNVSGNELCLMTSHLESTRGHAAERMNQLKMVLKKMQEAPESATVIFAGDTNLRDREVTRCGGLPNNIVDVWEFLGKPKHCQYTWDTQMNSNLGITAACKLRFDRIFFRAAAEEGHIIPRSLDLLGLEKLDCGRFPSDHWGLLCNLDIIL
Beta-galactosidase, sequence (Q8VNN2 whole entry): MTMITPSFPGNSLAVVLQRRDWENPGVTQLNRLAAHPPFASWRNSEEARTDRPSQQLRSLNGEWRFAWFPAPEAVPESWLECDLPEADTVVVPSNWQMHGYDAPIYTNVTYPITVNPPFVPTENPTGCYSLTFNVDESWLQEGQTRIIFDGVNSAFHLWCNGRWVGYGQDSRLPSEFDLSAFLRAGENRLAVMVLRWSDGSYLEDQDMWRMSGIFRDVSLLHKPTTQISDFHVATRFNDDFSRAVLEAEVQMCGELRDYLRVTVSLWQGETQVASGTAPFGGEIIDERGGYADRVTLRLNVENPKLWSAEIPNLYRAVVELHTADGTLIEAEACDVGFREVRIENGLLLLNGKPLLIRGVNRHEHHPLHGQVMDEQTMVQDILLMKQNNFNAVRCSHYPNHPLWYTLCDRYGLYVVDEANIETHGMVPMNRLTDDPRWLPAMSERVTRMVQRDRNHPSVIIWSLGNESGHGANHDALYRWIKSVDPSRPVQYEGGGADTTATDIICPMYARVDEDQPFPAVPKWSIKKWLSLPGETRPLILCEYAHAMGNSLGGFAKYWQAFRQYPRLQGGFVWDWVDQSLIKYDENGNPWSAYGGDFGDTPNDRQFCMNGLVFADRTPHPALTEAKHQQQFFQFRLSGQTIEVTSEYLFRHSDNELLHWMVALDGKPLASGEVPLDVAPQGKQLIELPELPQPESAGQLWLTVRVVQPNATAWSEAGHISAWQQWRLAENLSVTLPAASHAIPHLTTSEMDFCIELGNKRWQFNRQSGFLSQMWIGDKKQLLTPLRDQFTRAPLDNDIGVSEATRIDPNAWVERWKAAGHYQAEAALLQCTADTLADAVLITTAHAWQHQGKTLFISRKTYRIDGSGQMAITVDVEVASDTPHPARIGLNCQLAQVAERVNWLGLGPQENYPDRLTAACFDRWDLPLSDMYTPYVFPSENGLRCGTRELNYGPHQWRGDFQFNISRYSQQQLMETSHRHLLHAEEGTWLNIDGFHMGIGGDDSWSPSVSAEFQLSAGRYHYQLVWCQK

Compound: COc1ccc(C(=O)NC(=S)Nc2cccc(Cl)c2N2CCOCC2)cc1[N+](=O)[O-]
IC50 [1]: > 40 µM (not active)
EC50 (Beta-galactosidase): > 40 µM (inactive)
AC50 (HeLa): 28.8 µM (active)
AC50 (HeLa; Homo sapiens): > 52 µM (inactive)

Compound: Cc1cc(NC2=CC(=O)C(=O)c3ccccc32)no1
IC50 [2]: 3.52 µM (active)

Compound: CC(C)=CCOc1ccc(/C=C/C(=O)c2ccc(OCC=C(C)C)cc2OCC(=O)O)cc1 [SOFALCONE]
IC50 [3]: 3.04 µM (active)
IC50 [4]: > 10 µM (inactive)
IC50 [5]: 1.55 µM (active)
IC50 [6]: > 10 µM (inactive)
IC50 [7]: 5.36 µM (inactive)
IC50 [8]: > 6.67 µM (inactive)
IC50 [9]: 5.53 µM (inactive)
IC50 [10]: 5.4 µM (inactive)
IC50 [11]: 2.92 µM (active)
IC50 [12]: 7.44 µM (inactive)

Compound: Nc1nc2c(-c3ccc(Br)cc3)nnn2c2ccccc12
EC50 (cells [13]): > 67.6 µM (inactive)
EC50 [14]: > 67.6 µM (inactive)

Compound: O=C(NCCc1cccs1)c1ccc(Cl)cc1
IC50 [15]: 3.48 µM (active)
EC50 [16]: 1.19 µM (active)
EC50 (cells [17]): > 29.9 µM (inactive)
IC50 (cells [18]): > 29.9 µM (inactive)

IC50 [19]: > 100 µM (active)
Compound: Cn1nnc(NC(=O)c2cccc(F)c2)n1

IC50 [2]: 106 µM (inactive)
EC50 [20]: 89.8 µM (active)
EC50 [21]: 32.5 µM (active)
Compound: CN(C)c1cccc2c1c(NS(=O)(=O)c1cn(C)cn1)nn2C

IC50 (Albumin): > 94.1 µM (inactive)
Compound: O=C(NNC(=O)c1ccc2ccccc2c1O)NC1CCCCC1
